From patent publication US20260306968A1, “METHOD FOR THE SEPARATION OF PHOSPHORUS STEREOISOMERS OF REMDESIVIR USING LIQUID-LIQUID CHROMATOGRAPHY” (ROTACHROM TECHNOLÓGIAI ZRT., priority 2023, published 2026)

Legend:
[1] = Dissolving ability of the preferred solvent systems for the remdesivir mixture; assay type: physicochemical
Experimental: The preferred solvent systems are characterized by a short settling time (less than 30 sec), a good dissolving ability (more than 20 mg racemic mixture of remdesivir can be dissolved in 1 mL of the solvent system), while from the toxicological aspect, their components can be categorized into class 3 and/or class 4 solvents classes.

[2] = Várnai et al., J. Pharm. Biomed. Anal., 2021; cited from earlier work

CCC(CC)COC(=O)[C@H](C)NP(=O)(OC[C@H]1O[C@@](C#N)(c2ccc3c(N)ncnn23)[C@H](O)[C@@H]1O)Oc1ccccc1 (mixture of isomers) [racemic mixture of remdesivir]
amount that can be dissolved in 1 mL of the solvent system [1]: more than 20 mg

CCC(CC)COC(=O)[C@H](C)N[P@](=O)(OC[C@H]1O[C@@](C#N)(c2ccc3c(N)ncnn23)[C@H](O)[C@@H]1O)Oc1ccccc1 [remdesivir]
ionization constant (basic pka) [2]: 3.56
